The text below walks through data of patent US4942245A, “Benzimidazole Derivatives” (Kyorin Pharmaceutical Co., Ltd., priority 1987, dated 1990).

The subject of one assay is leukotriene D4. Briefly: Leukotriene D4-induced bronchoconstriction (modified Konzett-Rossler, transpulmonary pressure) in anesthetized guinea pig, oral administration. It counts as in vivo, male Hartley guinea pig. The settings on record: p.o., 2 hours before leukotriene D4 (3 μg/kg, i.v.). The method, then: A male Hartley guinea pig weighing about 450 g was anesthetized with sodium pentobarbital (30 mg/kg,i.p.). The change in transpulmonary pressure was measured by modifying the method of Konzett-Rossler (J. Harvey, et al., J. Pharmacol. Method. 9, 147-155, 1983) under an artificial ventilation. Animal was treated with indomethacin (10 mg/kg,i.v.) and propranolol (1 mg/kg,i.v.). Bronchoconstrictor response was obtained by bolus injection of leukotriene D4 (3 μg/kg,i.v.). Test compounds were suspended in 5% Gum Arabic solution and orally administered 2 hours before the challenge with leukotriene D4.

For a further assay, the system named is leukotriene. The settings on record: oral; P. Sheard et al, 1977; cited from earlier work.

Regarding `CCCc1c(OCCCC[S+]([O-])c2nc3cc(C(=O)O)ccc3[nH]2)ccc(C(C)=O)c1O` (stereo not drawn) [Example 12], the “Inhibition (%) of LTD4-induced bronchoconstrictor response” value (“Inhibition (%)” for short) with leukotriene D4 (200 mg/kg) is reported as 33.3%. For the compound `CCCc1c(OCCCCCSc2nc3cc(C(=O)O)ccc3[nH]2)ccc(C(C)=O)c1O` [Example 24], the “Inhibition (%)” value in the assay with leukotriene D4 (200 mg/kg) was 57.1%. As to `CCCc1c(OCC(O)COc2ccc3c(=O)cc(C(=O)O)oc3c2CCC)ccc(C(C)=O)c1O` (stereo not drawn) [FPL55712], the “effect of leukotriene antagonist when administered orally” value in the assay on leukotriene was “no effect”.

As to `CCCc1c(OCCCS(=O)(=O)c2nc3ccc(C(=O)O)cc3[nH]2)ccc(C(C)=O)c1O` [Example 6, 2-[3-(4-Acetyl-3-hydroxy-2-propylphenoxy)propylsulfonyl]benzimidazole-5-carboxylic acid], in the assay on leukotriene D4 (200 mg/kg), the “Inhibition (%)” value was determined as 40.5%. With `CCCc1c(OCCCCSc2nc3cc(C(=O)O)ccc3[nH]2)ccc(C(C)=O)c1O` [Example 11], the “Inhibition (%)” value is 27.6% in the assay on leukotriene D4 (25 mg/kg), 73.1% in the assay on leukotriene D4 (50 mg/kg) and 84.6% in the assay with leukotriene D4 (100 mg/kg). As for `CCCc1c(OCCCS(=O)(=O)c2nc3ccccc3[nH]2)ccc(C(C)=O)c1O` [Ref. 1, 2-[3-(4-acetyl-3-hydroxy-2-propylphenoxy)propylsulfonyl]-benzimidazole, reference compound], in the assay on leukotriene D4 (400 mg/kg), the “Inhibition (%)” value was found to be 19.5%. Consider `CCCc1c(OCCCCc2nc3ccc(C(=O)O)cc3[nH]2)ccc(C(C)=O)c1O` [Example 36, 2-[4-(4-Acetyl-3-hydroxy-2-propylphenoxy)butyl]-benzimidazole-5-carboxylic acid], for which the “Inhibition (%)” value with leukotriene D4 (100 mg/kg) was found to be 44.6%; with leukotriene D4 (200 mg/kg), 88.6%. The matching figures for `CCCc1c(OCCCSc2nc3ccc(C(=O)O)cc3[nH]2)ccc(C(C)=O)c1O` [Example 1, 2-[3-(4-Acetyl-3-hydroxy-2-propylphenoxy)propyl-thio]benzimidazole-5-carboxylic acid]: 47.8% and 63.3%.
